Assays:
Pim-2 = Pim-2 (Homo sapiens (Human), UniProt Q9P1W9); test: Pim-Mn enzyme assay (HTRF, 384-well), Pim-2; type: biochemical; conditions: Pim-2 enzyme 0.5 pM, ATP […], read-out: Pim-2-Mn IC50 IP
Excerpt: (§1) Full-length human cDNAs encoding Pim-1 (MGC ID 3913552) or Pim-2 (IMAGE ID 5092935) were purchased from Invitrogen, Carlsbad, Calif. These cDNAs were used as templates in PCR reactions to produce full-length DNA clones of the PIMs. Oligonucleotide PCR primers for Pim-1 were 5′-[…]-3′ and 5′-[…]-3′. Oligonucleotide PCR primers for Pim-2 were 5′-[…]-3′ and 5′-[…]-3′. PCR products were digested with BclI and EcoRI for Pim-1 and BamHI and EcoRI for Pim-2 and ligated into a modified baculovirus transfer vector (pFastBac 1) cleaved with BamHI and EcoRI. […]
(§2) The frozen cell pellets were thawed by stirring in chilled lysis buffer (0.05 M HEPES, pH 8.0, 0.25 M NaCl, 0.01 M 2-mercaptoethanol, 10% (w/v) glycerol, 0.5% (v/v) protease inhibitor cocktail (Sigma P-8340) at a ratio of 1 L/200 g cells until homogeneous. The thawed suspension was applied to a microfluidizer at 10,000 PSI to disrupt the cells and the whole lysates were clarified by centrifugation at 50,000×g for 90 min, 4° C. Imidazole was added to the clarified lysate to a final concentration of 2.5 mM and the lysate was mixed with 10 mL of Talon resin (Clontech) and the slurry rocked gently overnight at 4° C. […] Fractions were analyzed by SDS-PAGE and those containing the protein of interest were pooled and concentrated. […] The protein eluted at a retention time indicative of it being monomeric and fractions were analyzed by SDS-PAGE. […]

Pim-1 = Pim-1 (Homo sapiens (Human), UniProt P11309); test: Pim-Mn enzyme assay (HTRF, 384-well), Pim-1; type: biochemical; conditions: Pim-1 enzyme 5 pM, ATP […], read-out: Pim-1-Mn IC50 IP
Excerpt: as §1, §2

Chain of Pim-2 (Q9P1W9 whole entry): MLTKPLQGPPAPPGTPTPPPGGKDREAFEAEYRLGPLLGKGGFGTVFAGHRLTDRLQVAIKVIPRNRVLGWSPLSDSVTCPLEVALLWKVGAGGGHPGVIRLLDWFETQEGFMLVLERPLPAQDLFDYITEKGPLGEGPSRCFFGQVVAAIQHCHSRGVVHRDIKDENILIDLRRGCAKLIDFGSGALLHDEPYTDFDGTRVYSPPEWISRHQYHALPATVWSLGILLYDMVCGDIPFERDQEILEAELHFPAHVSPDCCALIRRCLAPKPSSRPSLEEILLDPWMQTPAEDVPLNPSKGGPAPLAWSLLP
Chain of Pim-1 (P11309 whole entry): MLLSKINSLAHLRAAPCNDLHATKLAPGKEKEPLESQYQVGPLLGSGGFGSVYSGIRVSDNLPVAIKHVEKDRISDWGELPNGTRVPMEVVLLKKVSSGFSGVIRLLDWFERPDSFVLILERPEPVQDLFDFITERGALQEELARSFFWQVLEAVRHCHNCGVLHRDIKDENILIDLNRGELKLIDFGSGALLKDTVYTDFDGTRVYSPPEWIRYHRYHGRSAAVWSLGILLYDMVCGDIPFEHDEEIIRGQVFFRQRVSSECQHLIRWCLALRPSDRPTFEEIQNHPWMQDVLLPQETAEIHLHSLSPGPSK

SMILES	IC50 (Pim-2)	IC50 (Pim-1)
Fc1cccc(F)c1-c1ccc2cnc(Nc3cnccc3C3=CCNCC3)n2n1 [Example 105, 2-(2,6-Difluorophenyl)-N-(1′,2′,3′,6′-tetrahydro-[4,4′-bipyridin]-3-yl)imidazo[1,5-b]pyridazin-7-amine bis(2,2,2-trifluoroacetate)]	1050 nM	35 nM
Cc1noc(C)c1-c1ccncc1Nc1ncc2ccc(-c3c(F)cccc3F)nn12 [Example 106, 2-(2,6-Difluorophenyl)-N-(4-(3,5-dimethylisoxazol-4-yl)pyridin-3-yl)imidazo[1,5-b]pyridazin-7-amine bis(2,2,2-trifluoroacetate)]	> 5000 nM	221 nM

Source: patent US9187486B2 (AMGEN INC., priority 2011, dated 2015)
